Our source for the logP values is ChEMBL document CHEMBL3046722, “QSAR study of 1,3dioxo-4-methyl-2,3-dihydro-1h-pyrrolo[3,4-c]quinolines as caspase-3 inhibitors” (Med Chem Res, 2008).

The series is described as follows: Octanol-water partition coefficient, log P of the compound. Format: physicochemical.
With `COC(=O)CN1C(=O)c2c(C)nc3ccccc3c2C1=O`, the lipophilicity (logP) turned out to be 1.73. Next, `COC(=O)CN1C(=O)c2c(C)nc3ccc(F)cc3c2C1=O`: 1.87; `COC(=O)CN1C(=O)c2c(C)nc3ccc(Br)cc3c2C1=O`: 2.53; `COC(=O)CN1C(=O)c2c(C)nc3ccc(S(=O)(=O)N4CCOCC4)cc3c2C1=O`: 0.404. Turning to `COC(=O)CCN1C(=O)c2c(C)nc3ccccc3c2C1=O`, the log partition coefficient (logP) amounted to 1.92.

With `COC(=O)CCN1C(=O)c2c(C)nc3ccc(F)cc3c2C1=O`, the lipophilicity (logP) worked out at 2.06. Next, `COC(=O)CCN1C(=O)c2c(C)nc3ccc(Br)cc3c2C1=O`: 2.71. The molecule `COC(=O)CCN1C(=O)c2c(C)nc3ccc(S(=O)(=O)N4CCOCC4)cc3c2C1=O` showed a log partition coefficient (logP) of 0.585.

`Cc1ccccc1N1C(=O)c2c(C)nc3ccccc3c2C1=O`: the log partition coefficient (logP) was 4.54. Next, `Cc1ccccc1N1C(=O)c2c(C)nc3ccc(Br)cc3c2C1=O`: 5.33. Molecule `Cc1ccccc1N1C(=O)c2c(C)nc3ccc(S(=O)(=O)N4CCOCC4)cc3c2C1=O` gave a logP of 3.21. Next, `Cc1nc2ccc(Br)cc2c2c1C(=O)N(c1c(C)nn(C)c1C)C2=O`: 4.43; `Cc1nc2ccc(S(N)(=O)=O)cc2c2c1C(=O)N(c1c(C)nn(C)c1C)C2=O`: 2.16; `Cc1nc2ccc(S(=O)(=O)NCCO)cc2c2c1C(=O)N(c1c(C)nn(C)c1C)C2=O`: 1.96. As for `COCCNS(=O)(=O)c1ccc2nc(C)c3c(c2c1)C(=O)N(c1c(C)nn(C)c1C)C3=O`, the logP was 2.24. In the case of `COC(=O)C(Cc1ccccc1)NS(=O)(=O)c1ccc2nc(C)c3c(c2c1)C(=O)N(c1c(C)nn(C)c1C)C3=O` (centres undefined) it was 4.2; in that of `Cc1nc2ccc(S(=O)(=O)N3CCCC3COc3ccccc3)cc2c2c1C(=O)N(c1c(C)nn(C)c1C)C2=O` (centres undefined), 4.67. In the case of `Cc1nc2ccc(S(=O)(=O)N3CCOCC3)cc2c2c1C(=O)N(c1c(C)nn(C)c1C)C2=O` it was 2.31; in that of `Cc1nc2ccc(C#N)cc2c2c1C(=O)N(c1c(C)nn(C)c1C)C2=O`, 3.68. `Cc1nc2ccc(F)cc2c2c1C(=O)NC2=O` yielded a logP of 2.05.

Consider `Cc1nc2ccc(Br)cc2c2c1C(=O)NC2=O`, for which the lipophilicity (logP) was found to be 2.71. Next, `Cc1nc2ccc(S(=O)(=O)N3CCOCC3)cc2c2c1C(=O)NC2=O`: 0.584; `Cc1nc2ccc(Br)cc2c2c1C(=O)N(C)C2=O`: 2.95.

For `Cc1nc2ccc(S(=O)(=O)N3CCOCC3)cc2c2c1C(=O)N(C)C2=O`, the logP was 0.83.
